In patent US20080214551A1, “Treatment of Burns” (AQ+ PLC, priority 2004, published 2008):

## Oc1cccc2cccnc12 [8-hydroxyquinoline]
  solubility in aqueous solution: generally insoluble or only poorly soluble
